From article PMC11202169, “A Novel Fluorescence-Based Microplate Assay for High-Throughput Screening of hSULT1As Inhibitors” (Biosensors, 2024)
“And” between values parts separate entries of the source, which are not always exact repeats. Equal entries are not always repeated. Where two headings read alike, the source gives them in different places.

Experiments:
Type in all cases: biochemical
hSULT1A1 = target: T1, hSULT1A1 (Homo sapiens, UniProt P50225); assay: Fluorescence-based microplate inhibition assay, hSULT1A1-catalyzed HN-241 4-O-sulfation; details: for activity at 1 µM: read-out: Residue activity (%) hSULT1A1; for IC50: hSULT1A1-catalyzed HN-241 4-O-sulfation;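 for all read-outs here: reaction started with 200 µM PAPS at 37 °C, fluorescence read continuously (Ex 350 nm, Em 450 nm), activity expressed relative to DMSO-only control without inhibitor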
T1 construct: 6-histidine tag (N); TEV site (N); made in house; host or cells: Escherichia coli BL21 (DE3), pET29a(+)

hSULT1A3 = target: T2, hSULT1A3 (Homo sapiens, UniProt P0DMM9); assay: Fluorescence-based microplate inhibition assay, hSULT1A3-catalyzed HN-241 4-O-sulfation; details: for activity at 10 µM: read-out: Residue activity (%) hSULT1A3; for IC50: hSULT1A3-catalyzed HN-241 4-O-sulfation
T2 construct: 6-histidine tag (N); TEV site (N); made in house; host or cells: Escherichia coli BL21 (DE3), pET29a(+)

hSULT1A2 = target: T3, hSULT1A2 (Homo sapiens, UniProt P50226); assay: Fluorescence-based microplate inhibition assay, hSULT1A2-catalyzed HN-241 4-O-sulfation; details: for remaining activity at 10 µM: 0.25 h, read-out: Residue activity (%) hSULT1A2
T3 construct: 6-histidine tag (N); TEV site (N); made in house; host or cells: Escherichia coli BL21 (DE3), pET29a(+)

[1] = test compound 1 μM, HN-241 1 μM, 15 min
[2] = test compound 10 μM, HN-241 10 μM, 15 min
[3] = test compound 10 μM, HN-241 5 μM, 15 min
[4] = hSULT1A2-catalyzed HN-241 4-O-sulfation

T2 sequence (P0DMM9 whole entry): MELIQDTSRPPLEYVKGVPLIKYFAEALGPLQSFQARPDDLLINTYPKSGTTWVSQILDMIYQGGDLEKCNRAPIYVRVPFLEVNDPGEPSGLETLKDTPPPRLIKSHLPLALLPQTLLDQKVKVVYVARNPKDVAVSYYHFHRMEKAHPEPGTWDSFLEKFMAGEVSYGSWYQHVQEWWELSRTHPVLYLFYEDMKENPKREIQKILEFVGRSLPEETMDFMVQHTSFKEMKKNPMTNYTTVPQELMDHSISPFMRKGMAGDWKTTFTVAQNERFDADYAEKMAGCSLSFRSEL
T1 sequence (P50225 whole entry): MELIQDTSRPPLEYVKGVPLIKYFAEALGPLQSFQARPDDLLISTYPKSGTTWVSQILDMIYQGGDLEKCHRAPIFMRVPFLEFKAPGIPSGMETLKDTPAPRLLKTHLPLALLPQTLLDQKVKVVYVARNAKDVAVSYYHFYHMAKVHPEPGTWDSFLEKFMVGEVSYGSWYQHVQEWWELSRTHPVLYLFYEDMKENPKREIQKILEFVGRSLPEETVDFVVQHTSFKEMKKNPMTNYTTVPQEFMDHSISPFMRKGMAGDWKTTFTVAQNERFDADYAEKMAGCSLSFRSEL
T3 sequence (P50226 whole entry): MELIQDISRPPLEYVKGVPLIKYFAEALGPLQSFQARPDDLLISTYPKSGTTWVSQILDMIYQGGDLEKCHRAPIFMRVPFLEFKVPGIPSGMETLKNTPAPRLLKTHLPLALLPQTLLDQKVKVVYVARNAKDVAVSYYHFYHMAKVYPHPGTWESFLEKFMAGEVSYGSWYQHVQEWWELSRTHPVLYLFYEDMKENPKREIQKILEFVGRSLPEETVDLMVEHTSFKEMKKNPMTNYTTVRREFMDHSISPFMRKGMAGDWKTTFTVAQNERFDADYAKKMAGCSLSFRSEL

SMILES | Residue activity (%) hSULT1A1 (hSULT1A1; [1]) | Residue activity (%) hSULT1A3 (hSULT1A3; [2]) | Residue activity (%) hSULT1A2 (hSULT1A2; [3]) | activity at 1 µM (hSULT1A1; [1]) | activity at 10 µM (hSULT1A3; [2]) | remaining activity at 10 µM (hSULT1A2; [3]) | other results
O=C1C=CC(=O)c2cc3ccccc3cc21 [1,4-Anthracenedione] | 29.15% | 94.23% | 1.06% |  |  |  | 
COc1cc2c(c(O)c1OC)C(=O)c1c(cc(C)c(O)c1OC)C2=O [1,7-Dihydroxy-2,3,8-trimethoxy-6-methylanthracene-9,10-dione] | 0.00% | 61.63% | 0.20% |  |  |  | 
C[C@]12CC[C@H](O)C[C@@]1(O)CC[C@@H]1[C@@H]2CC[C@]2(C)[C@@H](c3ccc(=O)oc3)CC[C@]12O [3β,5,14-Trihydroxy-5β-bufa-20,22-dienolide] | 121.35% | 114.49% | 109.91% |  |  |  | 
COc1ccc(/C=C/C(=O)c2ccccc2)cc1 [4-Methoxychalcone] | 78.44% |  | 75.95% |  |  |  | 
O=c1cc(-c2ccccc2)oc2ccc(O)c(O)c12 [5,6-Dihydroxy-2-phenylchromen-4-one] | 18.14% | 68.42% | 8.07% |  |  |  | 
COc1c2occc2cc2ccc(=O)oc12 [8-Methoxypsoralen] |  |  |  | 107% | 119% | 110% | 
CC(C)=CCC[C@@](C)(O)[C@H]1CC[C@]2(C)[C@@H]1[C@H](O)C[C@@H]1[C@@]3(C)CC[C@H](O)C(C)(C)[C@@H]3[C@@H](O[C@@H]3O[C@H](CO)[C@@H](O)[C@H](O)[C@H]3O[C@@H]3O[C@@H](C)[C@H](O)[C@@H](O)[C@H]3O)C[C@]12C [20(R)-Ginsenoside Rg2] | 104.07% | 122.28% | 104.32% |  |  |  | 
CC(C)=CCC[C@@](C)(O)[C@H]1CC[C@]2(C)[C@@H]1[C@H](O)C[C@@H]1[C@@]3(C)CC[C@H](O[C@@H]4O[C@H](CO)[C@@H](O)[C@H](O)[C@H]4O)C(C)(C)[C@@H]3CC[C@]12C [20(R)-Ginsenoside Rh2] | 98.01% | 116.23% | 114.69% |  |  |  | 
CC(C)=CCC[C@@](C)(O)[C@H]1CC[C@]2(C)[C@@H]1[C@H](O)C[C@@H]1[C@@]3(C)CC[C@H](O)C(C)(C)[C@@H]3[C@@H](O[C@@H]3O[C@H](CO)[C@@H](O)[C@H](O)[C@H]3O[C@@H]3OC[C@@H](O)[C@H](O)[C@H]3O)C[C@]12C [20(R)-Notoginsenoside R2] | 110.54% | 100.25% | 109.60% |  |  |  | 
CC(C)=CCC[C@](C)(O)[C@H]1CC[C@]2(C)[C@@H]1[C@H](O)C[C@@H]1[C@@]3(C)CC[C@H](O[C@@H]4O[C@H](CO)[C@@H](O)[C@H](O)[C@H]4O)C(C)(C)[C@@H]3CC[C@]12C [20(S)-Ginsenoside Rh2] | 85.94% | 105.44% | 110.74% |  |  |  | 
CC(C)=CCC[C@@](C)(O)[C@H]1CC[C@]2(C)[C@@H]1[C@H](O)C[C@@H]1[C@@]3(C)CC[C@H](O)C(C)(C)[C@@H]3CC[C@]12C [(20R)-Protopanaxdiol] | 99.25% and 99.62% | 110.20% and 105.48% | 97.81% and 101.25% |  |  |  | 
CC(C)=CCC[C@](C)(O)[C@H]1CC[C@]2(C)[C@@H]1[C@H](O)C[C@@H]1[C@@]3(C)CC[C@H](O)C(C)(C)[C@@H]3CC[C@]12C [(20S)-Protopanaxdiol] | 99.75% | 81.62% | 95.73% |  |  |  | 
Oc1cc(O)c2c(c1)O[C@@H](c1ccc(O)c(O)c1)[C@H](O)C2 [(-)-Catechin] |  |  |  | 41.4% | 46.8% | 101% | 
COc1ccc(-c2cc(=O)c3c(O)cc(O)cc3o2)cc1 [Acacetin] |  |  |  | 0.38% | 58.1% | 0.47% | 
O=C(/C=C/C=C/c1ccccc1)CCc1ccccc1 [Alnustone] | 74.39% | 111.42% | 80.60% |  |  |  | 
O=C1c2cccc(O)c2C(=O)c2c(O)cc(CO)cc21 [Aloeemodin] |  |  |  | 0.21% | 61.3% | 0% | IC50 (hSULT1A2; [4]): 118 ± 7.2 nM
COc1cc(O)cc2c1C(=O)C[C@@H](c1ccccc1)O2 [Alpinetin] |  |  |  | 69.8% | 115% | 49.5% | 
O=C1CCC[C@@H]2[C@H]3CCC[N@+]4([O-])CCC[C@@H](CN12)[C@@H]34 [Ammothamnine] | 99.18% | 100.34% | 96.56% |  |  |  | 

SMILES | Residue activity (%) hSULT1A1 (hSULT1A1; [1]) | Residue activity (%) hSULT1A3 (hSULT1A3; [2]) | Residue activity (%) hSULT1A2 (hSULT1A2; [3]) | activity at 1 µM (hSULT1A1; [1]) | activity at 10 µM (hSULT1A3; [2]) | remaining activity at 10 µM (hSULT1A2; [3]) | other results
COc1c(O)cc2c(c1O)C(=O)c1c(cc(C)c(O)c1OC)C2=O [Aurantio-obtusin] |  |  |  | 0.45% | 45.2% | 0% | IC50 (hSULT1A2; [4]): 492 ± 15.2 nM
O=c1cc(-c2ccccc2)oc2cc(O)c(O)c(O)c12 [Baicalein] |  |  |  |  |  |  | IC50 (hSULT1A1): 45.2 ± 3.91 nM; IC50 (hSULT1A3): 6320 ± 195 nM
COc1ccc(-c2cc(=O)c3c(O)cc(O)cc3o2)cc1-c1c(O)cc(O)c2c(=O)cc(-c3ccc(O)cc3)oc12 [Bilobetin] |  |  |  | 24% | 42.3% | 0% | IC50 (hSULT1A2; [4]): 55.5 ± 1.3 nM; Inhibition manner (hSULT1A2; inhibition kinetic assay, hSULT1A2-catalyzed HN-241 4-O-sulfation): mixed inhibition
C[C@]12CC[C@H](O)C[C@H]1CC[C@@H]1[C@@H]2CC[C@]2(C)[C@@H](c3ccc(=O)oc3)CC[C@]12O [Bufalin] |  |  |  |  |  |  | activity at 1 µM (hSULT1A1): 103%; activity at 10 µM (hSULT1A3): 124%; remaining activity at 10 µM (hSULT1A2): 106%
COc1ccc(-c2coc3cc(O[C@@H]4O[C@H](CO)[C@@H](O)[C@H](O)[C@H]4O)ccc3c2=O)cc1O [Calycosin-7-O-β-D-glucoside] | 2.77% | 54.16% | 22.81% |  |  |  | 
COc1cc(O)cc(O)c1C(=O)/C=C/c1ccccc1 [Cardamonin] | 63.24% and 71.38% | 120.65% and 88.76% | 34.41% and 31.76% |  |  |  | 
C[C@H](CCC(=O)O)[C@H]1CC[C@H]2[C@@H]3[C@H](O)C[C@@H]4C[C@H](O)CC[C@]4(C)[C@H]3CC[C@]12C [Chenodeoxycholic acid] |  |  |  | 96.5% | 129% | 98.2% | 
COc1cc2c(c(OC)c1OC)C(=O)c1c(cc(C)c(O)c1OC)C2=O [Chrysoobtusin] |  |  |  | 1.84% | 5.28% | 0.09% | IC50 (hSULT1A3): 1520 ± 79.1 nM
Cc1cc(O)c2c(c1)C(=O)c1cccc(O)c1C2=O [Chrysophanic acid] |  |  |  | 3.52% | 99.3% | 45.4% | 
C[C@H]1C(=O)O[C@@H]2CCN3CC=C(COC(=O)[C@](C)(O)[C@]1(C)O)[C@H]23 [Crotaline] | 128.03% | 122.18% | 97.30% |  |  |  | 
COc1ccc(-c2cc(=O)c3c(O)cc(O)cc3o2)cc1O [Diosmetin] |  |  |  | 0% | 39.1% | 57% | 
COc1cc(O)c2c(c1)C(=O)c1cc(C)cc(O)c1C2=O [Emodin-3-methyl ether] | 54.41% | 103.18% | 89.81% |  |  |  | 
Cc1cc(O)c2c(c1)C(=O)c1cc(O)cc(O)c1C2=O [Emodin] |  |  |  | 0% | 65% | 0% | IC50 (hSULT1A1): 76.5 ± 5.28 nM; IC50 (hSULT1A2; [4]): 360 ± 22.6 nM
C=C(C)[C@@H]1CC[C@]2(C(=O)O)CC[C@]3(C)[C@H](CC[C@@H]4[C@@]5(C)CC[C@@H](O)C(C)(C)[C@@H]5CC[C@]43C)[C@@H]12 [Epibetulinic acid] |  |  |  | 106% | 121% | 111% | 
COc1ccc(-c2oc3c(CC=C(C)C)c(O[C@@H]4O[C@H](CO)[C@@H](O)[C@H](O)[C@H]4O)cc(O)c3c(=O)c2O[C@@H]2O[C@@H](C)[C@H](O)[C@@H](O)[C@H]2O[C@@H]2O[C@@H](C)[C@H](O)[C@@H](O)[C@H]2O)cc1 [Epimedin C] | 108.62% | 107.48% | 95.77% |  |  |  | 
C[C@@H]1O[C@@H](OC[C@H]2O[C@@H](Oc3cc(O)c4c(c3)O[C@H](c3ccc(O)c(O)c3)CC4=O)[C@H](O)[C@@H](O)[C@@H]2O)[C@H](O)[C@H](O)[C@H]1O [Eriocitrin] |  |  |  | 65.5% | 104% | 111% | 
COC[C@]12CN(C)[C@@H]3[C@@H]4[C@H](OC)[C@H]1[C@@]3([C@@H](OC)C[C@H]2O)[C@@H]1C[C@@]2(O)[C@H](OC(=O)c3ccccc3)[C@@H]1[C@]4(OC(C)=O)[C@@H](O)[C@@H]2OC [Mesaconitine] |  | 110.31% | 114.51% |  |  |  | 
CC(C)=CCC[C@](C)(O)[C@H]1CC[C@]2(C)[C@@H]1[C@H](O)C[C@@H]1[C@@]3(C)CC[C@H](O)C(C)(C)[C@@H]3[C@@H](O[C@@H]3O[C@H](CO)[C@@H](O)[C@H](O)[C@H]3O[C@@H]3OC[C@@H](O)[C@H](O)[C@H]3O)C[C@]12C [Notoginsenoside R2] | 105.59% |  | 108.58% |  |  |  | 
